Test results: patent US5078986A, “Method for enhancing magnetic resonance imaging using an image altering agent containing an excess of chelating agent” (Mallinckrodt Medical, Inc., priority 1990, dated 1992)
Entries after “also recorded” stand apart in the source; their conditions may differ. Where two headings read alike, the source gives them in different places.

Tests used:
mice [1] = assay: Acute intravenous toxicity in mice (Example 4); conditions: i.v.; for Average Change in Body Wt. of Survivors: 7 days; for LD50: 7-day observation
Experimental: In addition, the cardiotoxic effects of single bolus intracoronary arterial injections of 4, 8, 16 or 32 mg MnCl2 were evaluated in the isolated perfused rabbit heart (IPRH).
The aqueous vehicle for the suspension of negatively charged liposomes consisted of 0.9% NaCl buffered with 0.003M sodium phosphate, pH 7.4. The lipid concentration was 50 μmol/ml.
A total of 60 mice, 30 males (body weight range of 20-33.5 g) and 30 females (body weight range of 19.1-29.7 g) were used. Fifty of the mice were Swiss ICR, CD-1, obtained from Charles River and ten were Swiss CF-1 obtained from Sasco (Omaha, Nebr.).
The four test substances were administered via the lateral tail vein of the mouse at a rate of 1 ml/min with the following doses given.

[2] = test system: isolated perfused rabbit heart
mice [3] = assay: Acute intravenous toxicity in mice (Example 7); assay type: in vivo, Swiss CF-1 albino mouse
Text: The acute intravenous toxicity of disodium (diethylenetriaminepentaacetato)gadolinium (III) (composition C of Example 1) was studied.
A total of 16 Swiss CF-1 albino mice (8 male, 22.0-25.6 g; 8 female, 18.2-24.1 g) were used. Picric acid markings were used for individual identification.
The protocol of Example 4 was used. Groups of 2-4 mice, with sexes equally represented, received single intravenous doses of the test substance according to the following schedule: […]

[4] = test system: normal and infarcted myocardial tissue, blood; assay: Proton T1 values of myocardium and blood in dogs with coronary occlusion (Example 10); assay type: in vivo, dog; conditions: for Blood T1: before 510
[5] = test system: tissue and blood protons of rabbits; assay: Tissue and blood proton T1 and T2 values in rabbits (Example 9); assay type: in vivo, rabbit; conditions: 0.51 mmol/kg i.v., 15 min
Experimental: The EKG was recorded with surface electrodes.

[6] = test system: excised hearts (normal and infarcted tissues); assay: NMR imaging of excised hearts of dogs with coronary occlusion (Example 10); assay type: in vivo, dog; conditions: 2 ml/kg (0.34 mmol Gd(III)/kg), 10 min
Experimental: Selective catheterization of the left anterior descending coronary artery or circumflex coronary artery was achieved via a percutaneous intracarotid artery approach in anesthetized dogs. Gelfoam plugs were inserted into the coronary artery, via the catheter, in order to produce coronary occlusion. Animals were treated with lidocaine to prevent coronary arrhythmias and morphine to relieve pain.

[7] = test system: renal medulla and renal cortex; assay: Abdominal NMR imaging in rabbits (Example 11); assay type: in vivo, rabbit; conditions: 0.3 ml/kg (0.5 mmol Gd(III)/kg) i.v.
Experimental: Two rabbits were anesthetized and abdominal NMR images were obtained in the General Electric NMR scanner. Rabbits then received intravenous doses of 0.3 ml/kg (0.5 mmol Gd(III)/kg) of the preparation of composition D of Example 1 (GdNa2 DTPA) and additional abdominal NMR images were made over a period of two hours after dosing.

[8] = Biodistribution of 54Mn radioactivity in rats (Example 5); assay type: in vivo, Sprague-Dawley rat
Text: A total of forty Sprague-Dawley rats (20 male, 217-295 g; 20 female, 151-208 g; Charles River) were used. Drinking water was provided ad libitum. The animals, 2 males and 2 females per group, were selected randomly from their cages and were identified with indelible ink numbers at tail bases before test substance administration.
Rats were divided into 10 groups consisting of 2 male and 2 female rats per group. […] Immediately after dosing, rats were housed in individual metabolism cages. Ground Purina Laboratory Chow and water were supplied ad libitum to animals sacrificed at 24 and 48 hr after treatment. Rats from both ^54 NmNa2 EDTA and ^54 Mn-L treatment groups were sacrificed by cervical dislocation at 0.5, 2, 4, 24 and 48 hr after treatment, and the following samples were obtained: injection site, blood, liver, lung, spleen, heart, kidneys, salivary gland (submaxillary), brain, bone with marrow, muscle and fat. Urine samples were obtained from animals sacrificed at all intervals of 2 hr or more after injection and fecal samples were obtained from animals sacrificed at 24 and 48 hr after treatment. […] The entire organ weights were determined for the remaining tissues.
Levels of radioactivity in the biological specimens and aliquots of the injected test substances were determined using a gamma scintillation spectrometer (Model 1085, Nuclear Chicago Corp., Des Plaines, Ill.). Results were calculated on a percent dose/organ (or fluid) and a percent dose/g (or ml) basis using an HP-85 desk top computer (Hewlett Packard, Fort Collins, Colo.).
Kinetic data for the elimination of radioactivity from liver, spleen, kidneys, heart and bone with marrow were curve fitted by the peeling and least-square methods, to mono or bi-exponential equations: [formula] Where Ct=% dose/organ in tissue at time t.
Ai=Concentration at time 0 of the line described by each first order term.
Ki=Elimination rate constant for each first-order term.
The half-life (t 1/2) for each elimination phase was calculated as 0.693/Ki. The square of the correlation coefficient (r^2) for each elimination phase was calculated as an indication of variability.

[9] = 32 mg, 0-15 S, only 1 heart, all others had VF

Compound: [Cl][Mn][Cl] [MnCl2, manganese(II)chloride]
- Cumulative 7-Day Mortalities/Number Dosed (mice [1]; female, 25 mg/kg): 1/5
- Average Change in Body Wt. of Survivors (mice [1]; female, 25 mg/kg): 2.7 g
- Cumulative 7-Day Mortalities/Number Dosed (mice [1]; female, 31.25 mg/kg): 4/5
- Average Change in Body Wt. of Survivors (mice [1]; female, 31.25 mg/kg): 3.5 g
- Cumulative 7-Day Mortalities/Number Dosed (mice [1]; female, 37.5 mg/kg): 4/5
- Average Change in Body Wt. of Survivors (mice [1]; female, 37.5 mg/kg): 3.6 g
- Acute intravenous toxicity (in words) (mice [1]): high degree of acute toxicity
- Cause of death (mice [1]): cardiac arrest the probable cause of death
- Convulsions (mice [1]): Transient convulsions, of moderate severity; also recorded: convulsions the primary pharmacotoxic sign
- Time of the one delayed death after dosing (mice [1]): 4 days
- LD50 (mice [1]; 10080 min): 28 mg/kg
- LD50 (mice [1]; listed as 1, 10080 min): 28.0 mg/kg
- LD50 expressed as Mn(II) (mice [1]; mmol/kg of Mn(II), 10080 min): 0.22 mmol/kg
- Cumulative 7-Day Mortalities/Number Dosed (mice [1]; male, 25 mg/kg): 3/5
- Average Change in Body Wt. of Survivors (mice [1]; male, 25 mg/kg): 1.2 g
- Cumulative 7-Day Mortalities/Number Dosed (mice [1]; male, 31.25 mg/kg): 2/5
- Average Change in Body Wt. of Survivors (mice [1]; male, 31.25 mg/kg): 4.6 g
- Cumulative 7-Day Mortalities/Number Dosed (mice [1]; male, 37.5 mg/kg): 4/5
- Average Change in Body Wt. of Survivors (mice [1]; male, 37.5 mg/kg): 3.4 g
- Incidence of Ventricular Fibrillation (VF) ([2]; 4 mg): 0/6
- Mean % Change in Contractile Force (CF) ([2]; 4 mg, 0-15 S): -5%
- Mean % Change in Heart Rate (HR) ([2]; 4 mg, 0-15 S): -2%
- Mean % Change in Contractile Force (CF) ([2]; 4 mg, 15-30 S): -28%
- Mean % Change in Heart Rate (HR) ([2]; 4 mg, 15-30 S): -2%
- Mean % Change in Contractile Force (CF) ([2]; 4 mg, 1 min): -12%
- Mean % Change in Heart Rate (HR) ([2]; 4 mg, 1 min): -4%
- Mean % Change in Contractile Force (CF) ([2]; 4 mg, 2 min): +5%
- Mean % Change in Heart Rate (HR) ([2]; 4 mg, 2 min): -2%
- Incidence of Ventricular Fibrillation (VF) ([2]; 8 mg): 0/6
- Mean % Change in Contractile Force (CF) ([2]; 8 mg, 0-15 S): -74%
- Mean % Change in Heart Rate (HR) ([2]; 8 mg, 0-15 S): -8%
- Mean % Change in Contractile Force (CF) ([2]; 8 mg, 15-30 S): -38%
- Mean % Change in Heart Rate (HR) ([2]; 8 mg, 15-30 S): -7%
- Mean % Change in Contractile Force (CF) ([2]; 8 mg, 1 min): -17%
- Mean % Change in Heart Rate (HR) ([2]; 8 mg, 1 min): -7%
- Mean % Change in Contractile Force (CF) ([2]; 8 mg, 2 min): +2%
- Mean % Change in Heart Rate (HR) ([2]; 8 mg, 2 min): -6%
- Incidence of Ventricular Fibrillation (VF) ([2]; 16 mg): 2/6
- Mean % Change in Contractile Force (CF) ([2]; 16 mg, 0-15 S): -92%
- Mean % Change in Heart Rate (HR) ([2]; 16 mg, 0-15 S): -31%
- Mean % Change in Contractile Force (CF) ([2]; 16 mg, 15-30 S): -61%
- Mean % Change in Heart Rate (HR) ([2]; 16 mg, 15-30 S): -14%
- Mean % Change in Contractile Force (CF) ([2]; 16 mg, 1 min): -37%
- Mean % Change in Heart Rate (HR) ([2]; 16 mg, 1 min): -14%
- Mean % Change in Contractile Force (CF) ([2]; 16 mg, 2 min): -1%
- Mean % Change in Heart Rate (HR) ([2]; 16 mg, 2 min): -11%
- Premature ventricular contractions ([2]; 16 mg, hearts which did not fibrillate): two of the four hearts which did not fibrillate had premature ventricular contractions
- Incidence of Ventricular Fibrillation (VF) ([2]; 32 mg): 5/6
- Mean % Change in Contractile Force (CF) [2, 9]: -100%
- Mean % Change in Heart Rate (HR) [2, 9]: -100%
- Mean % Change in Contractile Force (CF) ([2]; 32 mg, 15-30 S): -64%
- Mean % Change in Heart Rate (HR) ([2]; 32 mg, 15-30 S): -17%
- Mean % Change in Contractile Force (CF) ([2]; 32 mg, 1 min): -33%
- Mean % Change in Heart Rate (HR) ([2]; 32 mg, 1 min): -17%
- Mean % Change in Contractile Force (CF) ([2]; 32 mg, 2 min): +2%
- Mean % Change in Heart Rate (HR) ([2]; 32 mg, 2 min): -14%
- A-V conduction block ([2]; 32 mg, the single heart which failed to fibrillate): complete A-V conduction block with ventricular standstill
- Incidence of arrhythmias (in words) ([2]; 4-32 mg intracoronary): dose-related incidence of arrhythmias
- Period of maximal CF and HR effects after injection ([2]; 4-32 mg intracoronary): 0 to 15 s
- Arrhythmias at the lower two doses ([2]; 4 and 8 mg): No arrhythmias were observed
- Time to return to control or stabilization at new baseline ([2]; CF and HR): two
- PR and QRS intervals ([2]; ECG): dose-related increases in PR and QRS intervals
- Reversion of VF ([2]; exception: a 32 mg dose): did revert spontaneously to normal sinus rhythm in each instance but one

Compound: O=C([O-])CN(CCN(CC(=O)[O-])CC(=O)[O-])CCN(CC(=O)[O-])CC(=O)[O-].[Gd+3].[Na+].[Na+] [GdNa2 DTPA, disodium (diethylenetriaminepentaacetato)gadolinium (III)]
- Dose up to which no deaths were observed (mice [3]; mouse, i.v.): 12000 mg/kg
- Ataxia (mice [3]; mouse, in vivo): slight ataxia
- Body weight (in words) (mice [3]; mouse, in vivo): slight reduction in body weight
- Respiratory distress (mice [3]; mouse, in vivo): respiratory distress was observed
- Time until all mice appeared normal (mice [3]; mouse, in vivo, iv): ≤ 6 h
- Acute intravenous toxicity profile (in words) (mice [3]; up to 12.0 g/kg): relatively safe mouse acute intravenous toxicity profile
- T1, infarcted regions of heart muscle ([4]; 0.17 mmol Gd(III)/kg i.v., 10 min): 290 ms
- T1, normally perfused myocardial tissue ([4]; 0.17 mmol Gd(III)/kg i.v., 10 min, untreated 330): 180 ms
- Blood T1 ([4]; 0.34 mmol Gd(III)/kg, 5 minutes): 50 ms
- T1, infarcted tissue ([4]; 0.34 mmol Gd(III)/kg, 10 min): 230 ms
- T1, normally perfused myocardium ([4]; 0.34 mmol Gd(III)/kg, 10 min, untreated 330): 135 ms
- Blood T1 ([4]; 0.34 mmol Gd(III)/kg, 10 minutes): 100 ms
- Mean tissue T1, Fat [5]: 61 ms
- Mean tissue T1, Renal Medulla [5]: 130 ms
- Image differences between normal and infarcted tissues [6]: marked differences between normal and infarcted tissues; also recorded: greater than that observed in hearts from dogs with infarcts who had not received a contrast enhancement agent
- T1 image of blood remaining in the ventricles [6]: much different T1 image
- Alteration of renal proton images [7]: Marked alteration of renal medulla and renal cortex proton images
- Time to peak effects [7]: ≤ 15 min

Compound: O=C([O-])CN(CCN(CC(=O)[O-])CC(=O)[O-])CC(=O)[O-].[54Mn+2].[Na+].[Na+] [^54 MnNa2 EDTA]
- Radioactivity in fat (in words) ([8]; 2 of 4 rats at 0.5, 2 and 4 hr): Unusually high levels of radioactivity
- Localization of remaining radioactivity ([8]; after 48 hr): primarily localized in the bone and marrow
- Urinary excretion at later time intervals ([8]; after the initial 2 hr): no additional urinary excretion of radioactivity was observed
- Blood clearance at 2 hr (in words) ([8]; by 2 hr after treatment): almost completely cleared from the blood
- Blood clearance (in words) ([8]; rat, i.v.): rapidly cleared from the blood
- Bone and marrow half-life ([8]; rat, i.v.): > 100 h
- Distribution, percent dose/organ (in words) ([8]; rat, i.v.): distributed primarily to the liver, bone with marrow, muscle and kidneys
- Fraction associated with rapid first phase hepatic elimination ([8]; rat, i.v.): Approximately 92%
- Fraction associated with rapid first phase renal elimination ([8]; rat, i.v.): Approximately 81%
- Heart half-life, monophasic elimination ([8]; rat, i.v.): approximately 8 hr
- Hepatic t 1/2, initial rapid elimination ([8]; rat, i.v.): < 1 h
- Hepatic t 1/2, secondary slow elimination phase ([8]; rat, i.v.): > 17 h
- Renal t 1/2, initial rapid elimination ([8]; rat, i.v.): < 1 h
- Renal t 1/2, secondary slow elimination phase ([8]; rat, i.v.): > 17 h
- Spleen half-life, monophasic elimination ([8]; rat, i.v.): ~ 2 hr
- Dose eliminated in the urine ([8]; within 2 hr after treatment): > 50 % of the dose
- Total dose excreted in the feces ([8]; within 48 hr after treatment): 31%
